The test system of the experiment is IFNI pathway. The experiment can be described thus: IFNI pathway activation: IFNI gene signature in peripheral blood and plasma CXCL-10 (IP-10). Format: in vivo, human. The method, then: Blood samples for subasumstat–SUMO adduct formation and SUMO2/3 inhibition assessments were collected before dose and at 1, 4, and 8 hours after the infusion on C1D1 and C1D8. Blood samples for additional biomarker analyses were collected before dose on C1D1 and C1D8 and at 4, 8, and 24 hours after infusion on C1D1 and C1D8. Skin biopsies (used as surrogate tissue for solid tumors) were collected at screening and on C1D8 at 2 hours (±30 minutes) after end of infusion, and tumor biopsies were collected at screening and cycle 2 day 8 (C2D8; +7 days; whenever possible). In blood samples, a custom flow cytometry assay was utilized for detecting target engagement and SUMOylated protein levels in lymphocytes (including T-, B-, and NK-cell subsets). The assay included a PE-conjugated antibody specifically recognizing the SUMO–subasumstat adduct (MIL-113, anti–cysteinyl-TAK-981, Epitomics; refs. [14], [15], [22]) and an AF488-conjugated antibody recognizing SUMO2/3 conjugates (MBL International, cat. #M114-3, RRID: AB_592769). Peripheral blood cells were lysed/fixed, permeabilized (BD Biosciences), and stained with MIL-113 and M114-3 and with antibodies against CD45, CD3, CD19, CD16/CD56, and CD14. […] Activation of the IFNI pathway was assessed in peripheral blood by analysis of gene expression data (PanCancer IO 360 panel by NanoString for phase I and whole-transcriptome RNA sequencing data for phase II). […] These seven IFNI-regulated genes were selected prior to the trial, based on in vitro studies of the effect of subasumstat on human blood from 10 healthy donors analyzed on the NanoString PanCancer IO 360 panel. Plasma chemokines and cytokines were measured using the MesoScale Discovery platform (pro-inflammatory and chemokine panels, BioAgilytix). […] Tumor PD-L1 expression level was assessed in paired tumor biopsies using the 22C3 PD-L1 IHC assay; combined positive score (CPS) was calculated for baseline and on-treatment tumor samples. The immune landscape in the tumor microenvironment (TME) was assessed using an integrated RNAscope and 27-marker MultiOmyx immunofluorescence panel.

Turning to `Cc1sc(C(=O)c2cncnc2N[C@@H]2C[C@H](COS(N)(=O)=O)[C@@H](O)C2)cc1[C@@H]1NCCc2ccc(Cl)cc21` [subasumstat], the “Dose from which IFNI gene signature and plasma CXCL-10 (IP-10) were upregulated” value (both dosing schedules, phase I, dose-dependent) was not below 40 mg. For the same compound, under “both markers”, the “Recovery of IFNI gene signature and IP-10” value is recorded as “returned to baseline levels before dose on C1D8”. For the same compound, under “plasma”, the “Time to increase of IP-10 plasma concentration after end of infusion” value is not above 24 h.

(Values after publication PMC12627933, “A First-In-Human Study of the SUMOylation Inhibitor Subasumstat in Patients with Advanced/Metastatic Solid Tumors or Relapsed/Refractory Hematologic Malignancies” (Cancer Research Communications, 2025).)
